Reference: US20260008784A1 (VASTHERA CO., LTD., priority 2022, published 2026)

What was measured:
[1] = system: yeast thioredoxin (Trx)/yeast Trx reductase (TR); experiment: Peroxidase activity assay (H2O2 reduction, NADPH oxidation); type: biochemical; details: 50 μM test compound, 3 μM yeast Trx, 1.5 μM yeast TR, 250 μM NADPH, 1.2 mM H2O2, 30° C.; NADPH oxidized per minute
Protocol: Hydrogen peroxide (H2O2)-reducing peroxidase activity of compounds in present invention was performed as follows. Peroxyredoxin activity was measured in reaction mixture (200 μL volume) containing 50 mM HEPES buffer (pH 7.0), 1 mM EDTA, 250 μM NADPH, 3 μM yeast thioredoxin (Trx), 1.5 μM yeast Trx reductase (TR), 50 μM test compound, and 1.2 mM H2O2.
Reaction was initiated by adding H2O2 and the decrease in absorbance at 340 nm was measured using Agilent UV8453 spectrophotometry (Hewlett Packard, USA) at 30° C. for 12 min. Initial reaction rate is the amount of NADPH oxidized per minute calculated from slope of the linear part of curve.
The H2O2-reducing peroxidase activity of the test compounds in present invention was measured in a reaction mixture containing thioredoxin (Trx)/thioredoxin reductase (TR), respectively.

[2] = Measurement of redox potential (DTT redox buffers, HPLC); type: physicochemical; details: DTT(Red)/DTT(Ox) redox buffers, 3 h, 30° C., 50% reduction of test compound
Protocol: A test compound (10 mM) was diluted 20-fold with each redox buffer solution and incubated for 3 h in a 30° C. water bath. Then, compounds were analyzed by HPLC. The area of peaks corresponding to the oxidized and reduced forms of test compound based on specific retention time was calculated and plotted as percent of total peak area against the Nernst equation value (mV) at x-axis. The Nernst equation value corresponding to 50% reduction of test compound was set as the midpoint redox potential value for test compound.
The redox potential values of the test compounds were analyzed based on the potential values established in redox buffer solutions where reduced and oxidized DTT are mixed at various ratios.

[3] = system: Tyr 857 phosphorylation of PDGF receptor-β (PDGFRβ) in HASMC; experiment: Immunoblot of PDGF-mediated signaling in PrxII knock-down HASMC; type: cell-based, human; details: HASMC depleted of PrxII expression, FIG. 2
Protocol: Cells were quickly washed in ice-cold phosphate-buffered saline (PBS) and lysed in extraction buffer containing 20 mM Hepes (pH 7.0), 1% Triton X-100, 150 mM NaCl, 10% glycerol, 1 mM EDTA, 2 mM EGTA, and 1 mM DTT, 5 mM Na3VO4, 5 mM NaF, 1 mM AEBSF, aprotinin (5 μg/mL), and leupeptin (5 μg/mL). After cen-trifugation at 12,000×g, the clarified cell extracts were used for immunoblotting. For re-blotting, the immunoblots were retrieved in a solution of 67 mM Tris (pH 6.7), 2% SDS, and 100 mM 2-mercaptoethanol at 60° C. for 30 min to remove antibodies and rinsed three times with a Tris-buffered saline (TBS) solution containing 1% Triton X-100. The retrieved membranes were subjected to new immunoblotting.
In human aortic smooth muscle cell (HASMC) and human pulmonary artery smooth muscle cell (PASMC) in which PrxII was knocked out by transfecting the PrxII siRNA, the ability of test compounds to replace the cellular function of PrxII was evaluated. That is, the efficacy of the new compounds was verified in terms of signaling pathways induced by PDGF that regulates the growth and migration of vascular smooth muscle cells in the aorta and pulmonary artery. Activation of PDGF-induced signaling pathway was analyzed by an immunoblot method using an antibody that specifically recognizes phosphorylation of Tyr 857, which is a major phosphorylation site on PDGF receptor (PDGFRβ).

Protocol for in vitro: Cytotoxicity tests were performed against vascular endothelial cells, vascular smooth muscle cells and hepatocytes. After treatment with ascending concentrations of each compound, the concentration of test compound corresponding to 50% cell viability (CC50) was measured.

Molecule	Peroxidase activity for H2O2 reduction [1]	Midpoint redox potential (E m) [2]	CC50 (in vitro)	Effect on phosphorylation of Tyr 857 on PDGFR [3]
COc1cc(CN2C(=O)C3(C)SSCC2C(=O)N3C)cc(OC)c1OC (stereo not drawn) [Compound 3, 1,8-dimethyl-6-(3,4,5-trimethoxybenzyl)-2,3-dithia-6,8-diazabicyclo[3.2.2]nonane-7,9-dione]	4.11 nmol/min	−296 mV	82.6 µM	–
O=C1C2CSSC3(COCCN13)C(=O)N2Cc1ccncc1 (stereo not drawn) [Compound 9, 12-(pyridin-4-ylmethyl)tetrahydro-5H,10H-4,10a-(epiminomethano)[1,4]oxazino[3,4-c][1,2,4]dithiazepin-5,11-dione]	5.19 nmol/min	–	–	–
CN1C(=O)C2(C)SSCC1C(=O)N2Cc1cn(C)cn1 (stereo not drawn) [Compound 17, 1,6-dimethyl-8-((1-methyl-1H-imidazol-4-yl)methyl)-2,3-dithia-6,8-diazabicyclo[3.2.2]nonane-7,9-dione]	4.80 nmol/min	–	–	–
CN1CCN2C(=O)C3CSSC2(C1)C(=O)N3Cc1ccncc1 (stereo not drawn) [Compound 22]	7.97 nmol/min	–	–	strongly abolish the phosphorylation
CN1C(=O)C2CSSC1(C)C(=O)N2Cc1ccc(F)cc1F (stereo not drawn) [Compound 4]	3.82 nmol/min	−292.74 mV	98 µM	–
CC1SSC2(C)C(=O)N(Cc3ccccc3)C1C(=O)N2C (stereo not drawn) [Compound 24, 6-benzyl-1,4,8-trimethyl-2,3-dithia-6,8-diazabicyclo[3.2.2]nonane-7,9-dione]	4.26 nmol/min	–	–	–
CN1C(=O)C2(C)SSCC1C(=O)N2Cc1ncccn1 (stereo not drawn) [Compound 16, 1,6-dimethyl-8-(pyrimidin-2-ylmethyl)-2,3-dithia-6,8-diazabicyclo[3.2.2]nonane-7,9-d ione]	4.93 nmol/min	–	–	–
COC(=O)c1ccc(CN2C(=O)C3CSSC2(C)C(=O)N3C)cc1 (stereo not drawn) [Compound 18, Methyl 4-((1,6-dimethyl-7,9-dioxo-2,3-dithia-6,8-diazabicyclo[3.2.2]nonan-8-yl)methyl)benzo ate]	4.91 nmol/min	–	–	–
6-benzyl-1,4,8-trimethyl-2,3-dithia-6,8-diazabicyclo[3.2.2]nonane-7,9-dione [Compound 25]	4.51 nmol/min	–	–	–
O=C1C2CSSC3(CCCN13)C(=O)N2Cc1ccncc1 (stereo not drawn) [Compound 11, 11-(pyridin-4-ylmethyl)tetrahydro-5H,7H-4,9a-(epiminomethano)pyrrolo[2,1-c][1,2,4]dithiazepine-5,10-dione]	4.57 nmol/min	–	–	–
